What was measured:
[1] = MAESTRO-NASH: sex hormones at week 52; details: for Estradiol (female), LS mean CFB / Estradiol (female), LS mean difference from PBO (CFB) / Estradiol (male), LS mean CFB / Estradiol (male), LS mean difference from PBO (CFB) / FSH (female), LS mean CFB / FSH (female), LS mean difference from PBO (CFB) / FSH (male), LS mean CFB / FSH (male), LS mean difference from PBO (CFB) / Free testosterone (female), LS mean CFB / Free testosterone (female), LS mean difference from PBO (CFB) / Free testosterone (male), LS mean CFB / Free testosterone (male), LS mean difference from PBO (CFB) / LH (female), LS mean CFB / LH (female), LS mean difference from PBO (CFB) / LH (male), LS mean CFB / LH (male), LS mean difference from PBO (CFB) / SHBG (female), LS mean % CFB / SHBG (female), LS mean CFB / SHBG (female), LS mean difference from PBO (% CFB) / SHBG (female), LS mean difference from PBO (CFB) / SHBG (male), LS mean % CFB / SHBG (male), LS mean CFB / SHBG (male), LS mean difference from PBO (% CFB) / SHBG (male), LS mean difference from PBO (CFB) / SHBG, LS mean % CFB / SHBG, LS mean CFB / SHBG, LS mean difference from PBO (% CFB) / SHBG, LS mean difference from PBO (CFB) / Testosterone (female), LS mean CFB / Testosterone (female), LS mean difference from PBO (CFB) / Testosterone (male), LS mean CFB / Testosterone (male), LS mean difference from PBO (CFB): Week 52
NASH patients [2] = assay: MAESTRO-NAFLD-1 100 mg open label non-cirrhotic NASH arm, 52 weeks; format: in vivo, human
Description: The 169 patient, 100 mg open label (OL) arm completed the 52 week study in July 2021.
Eligibility required at least 3 metabolic risk factors (Metabolic syndrome), fibroscan kilopascals (kPa) consistent with ≥F1 fibrosis stage, and MRI-PDFF≥8%. The primary and key secondary endpoints of MAESTRO-NAFLD-1 including safety, relative percent reduction of MRI-PDFF (week 16), LDL cholesterol (LDL-C) (week 24), apolipoprotein B and triglycerides, fibroscan and 52 week endpoints were analyzed in the OL arm.
Mean age was 55.7 (11.5 Standard Deviation (SD)), female 69%, BMI 35.8 (6.0), diabetes 43%, hypertension 62%, dyslipidemia >70%, atherosclerotic cardiovascular disease (ASCVD) score 11.5%; fibroscan (kPa 7.7 (3.6)), and MRI-PDFF 17% (7%). […] Liver volume (LV) was elevated at baseline (2202 cm3 (535)) by […] relative to normal controls and −15% after correction for BMI (Euro J of Radiol 106, 2018, 32-37). […] LV reduction was 2-3 fold greater than predicted by % reduction in MRI-PDFF, a measure of liver fat content (Clin Gastroenterol Hepatol. 2015 13: 561-568); LY-corrected mean MRI-PDFF reduction was −63% (2.4%). […] At week 52, magnetic resonance elastography (MRE) (−0.34, p=0.03); fibroscan controlled attenuation parameter (CAP) (−39 (4.6)) and vibration-controlled transient elastography (VCTE) (−1.87; −20%) (p<0.0001) were reduced relative to baseline.

[3] = system: well-compensated NASH cirrhotic patients; assay: MAESTRO-NAFLD-1 open label well-compensated NASH cirrhotic arm, 52 weeks; format: in vivo, human
Description: LV was assessed using a validated artificial intelligence model for segmenting the liver on standard MR images. […] Eligibility required at least 3 metabolic risk factors (metabolic syndrome), and NASH cirrhosis diagnosed on liver biopsy or according to accepted criteria. […] Demographics include mean age 62.7 (9.0 (SD)), female 64%, BMI 35.4 (7.4), diabetes 70%, hypertension 77%, dyslipidemia >70%, mean ASCVD score 16.1%, hypothyroid 32.4%, 51% on statins. […] Stage of cirrhosis was inversely correlated with baseline PDFF.

NASH patients [4] = assay: Exposure-response: probability of NASH resolution or fibrosis response by Cave,ss; format: in vivo, human
Description: Various body weight cutoffs for dosing were evaluated.
Study median body weight was 100 kg. […] Study median BMI was 35 kg/m^2.

[5] = cirrhotic NASH, PDFF≤5% at baseline, week 16

CC(C)c1cc(Oc2c(Cl)cc(-n3nc(C#N)c(=O)[nH]c3=O)cc2Cl)n[nH]c1=O [Resmetirom, 2-(3,5-dichloro-4-((5-isopropyl-6-oxo-1,6-dihydropyridazin-3-yl)oxy)phenyl)-3,5-dioxo-2,3,4,5-tetrahydro-1,2,4-triazine-6-carbonitrile]
Estradiol (female), LS mean CFB ([1]; 80 mg): 17.7 ng/L | Estradiol (female), LS mean difference from PBO (CFB) ([1]; 80 mg): 15.9 ng/L | Estradiol (male), LS mean CFB ([1]; 80 mg): 8.9 ng/L | Estradiol (male), LS mean difference from PBO (CFB) ([1]; 80 mg): 9.0 ng/L | FSH (female), LS mean CFB ([1]; 80 mg): −0.54 mIU/mL | FSH (female), LS mean difference from PBO (CFB) ([1]; 80 mg): 0.79 mIU/mL | FSH (male), LS mean CFB ([1]; 80 mg): 1.1 mIU/mL | FSH (male), LS mean difference from PBO (CFB) ([1]; 80 mg): 1.1 mIU/mL | Free testosterone (female), LS mean CFB ([1]; 80 mg): 0 nmol/L | Free testosterone (female), LS mean difference from PBO (CFB) ([1]; 80 mg): 0 nmol/L | Free testosterone (male), LS mean CFB ([1]; 80 mg): 0.04 nmol/L | Free testosterone (male), LS mean difference from PBO (CFB) ([1]; 80 mg): 0.02 nmol/L | LH (female), LS mean CFB ([1]; 80 mg): −0.93 mIU/mL | LH (female), LS mean difference from PBO (CFB) ([1]; 80 mg): −0.33 mIU/mL | LH (male), LS mean CFB ([1]; 80 mg): 1.7 mIU/mL | LH (male), LS mean difference from PBO (CFB) ([1]; 80 mg): 1.8 mIU/mL | SHBG (female), LS mean % CFB ([1]; 80 mg): 193.0% | SHBG (female), LS mean CFB ([1]; 80 mg): 74.1 nmol/L | SHBG (female), LS mean difference from PBO (% CFB) ([1]; 80 mg): 177.4% | SHBG (female), LS mean difference from PBO (CFB) ([1]; 80 mg): 73.3 nmol/L | SHBG (male), LS mean % CFB ([1]; 80 mg): 108.0% | SHBG (male), LS mean CFB ([1]; 80 mg): 41.9 nmol/L | SHBG (male), LS mean difference from PBO (% CFB) ([1]; 80 mg): 107.3% | SHBG (male), LS mean difference from PBO (CFB) ([1]; 80 mg): 40.4 nmol/L | SHBG, LS mean % CFB ([1]; 80 mg): 157.5% | SHBG, LS mean CFB ([1]; 80 mg): 60.2 nmol/L | SHBG, LS mean difference from PBO (% CFB) ([1]; 80 mg): 148.5% | SHBG, LS mean difference from PBO (CFB) ([1]; 80 mg): 58.9 nmol/L | Testosterone (female), LS mean CFB ([1]; 80 mg): 0.15 µg/L | Testosterone (female), LS mean difference from PBO (CFB) ([1]; 80 mg): 0.15 µg/L | Testosterone (male), LS mean CFB ([1]; 80 mg): 2.6 µg/L | Testosterone (male), LS mean difference from PBO (CFB) ([1]; 80 mg): 2.2 µg/L | Estradiol (female), LS mean CFB ([1]; 100 mg): 30.6 ng/L | Estradiol (female), LS mean difference from PBO (CFB) ([1]; 100 mg): 28.8 ng/L | Estradiol (male), LS mean CFB ([1]; 100 mg): 11.0 ng/L | Estradiol (male), LS mean difference from PBO (CFB) ([1]; 100 mg): 11.2 ng/L | FSH (female), LS mean CFB ([1]; 100 mg): 0.63 mIU/mL | FSH (female), LS mean difference from PBO (CFB) ([1]; 100 mg): 2.0 mIU/mL | FSH (male), LS mean CFB ([1]; 100 mg): 1.7 mIU/mL | FSH (male), LS mean difference from PBO (CFB) ([1]; 100 mg): 1.7 mIU/mL | Free testosterone (female), LS mean CFB ([1]; 100 mg): 0 nmol/L | Free testosterone (female), LS mean difference from PBO (CFB) ([1]; 100 mg): 0 nmol/L | Free testosterone (male), LS mean CFB ([1]; 100 mg): 0.03 nmol/L | Free testosterone (male), LS mean difference from PBO (CFB) ([1]; 100 mg): 0.01 nmol/L | LH (female), LS mean CFB ([1]; 100 mg): 0.80 mIU/mL | LH (female), LS mean difference from PBO (CFB) ([1]; 100 mg): 1.4 mIU/mL | LH (male), LS mean CFB ([1]; 100 mg): 1.9 mIU/mL | LH (male), LS mean difference from PBO (CFB) ([1]; 100 mg): 2.0 mIU/mL | SHBG (female), LS mean % CFB ([1]; 100 mg): 251.8% | SHBG (female), LS mean CFB ([1]; 100 mg): 94.0 nmol/L | SHBG (female), LS mean difference from PBO (% CFB) ([1]; 100 mg): 236.2% | SHBG (female), LS mean difference from PBO (CFB) ([1]; 100 mg): 93.2 nmol/L | SHBG (male), LS mean % CFB ([1]; 100 mg): 174.0% | SHBG (male), LS mean CFB ([1]; 100 mg): 60.8 nmol/L | SHBG (male), LS mean difference from PBO (% CFB) ([1]; 100 mg): 173.3% | SHBG (male), LS mean difference from PBO (CFB) ([1]; 100 mg): 59.3 nmol/L | SHBG, LS mean % CFB ([1]; 100 mg): 217.4% | SHBG, LS mean CFB ([1]; 100 mg): 80.7 nmol/L | SHBG, LS mean difference from PBO (% CFB) ([1]; 100 mg): 208.4% | SHBG, LS mean difference from PBO (CFB) ([1]; 100 mg): 79.4 nmol/L | Testosterone (female), LS mean CFB ([1]; 100 mg): 0.19 µg/L | Testosterone (female), LS mean difference from PBO (CFB) ([1]; 100 mg): 0.19 µg/L | Testosterone (male), LS mean CFB ([1]; 100 mg): 3.5 µg/L | Testosterone (male), LS mean difference from PBO (CFB) ([1]; 100 mg): 3.0 µg/L | levels of sex hormones ([1]; in vivo): little changed from baseline | ALT decrease from baseline (NASH patients [2]): −20 IU | AST decrease from baseline (NASH patients [2]): −11 IU | Blood pressure (systolic, diastolic) change (NASH patients [2]): −2 mmHg | GGT decrease from baseline (NASH patients [2]): −25 IU | LDL-C change (NASH patients [2]): −22% | LV reduction greater than predicted by % reduction in MRI-PDFF (NASH patients [2]): 2-3 fold | LV-corrected mean MRI-PDFF reduction (NASH patients [2]): −63% | apolipoprotein-B change (NASH patients [2]): −24% | triglycerides change (NASH patients [2]): −24% | bone mineral density (DEXA) (NASH patients [2]; 52 weeks): unchanged | safety (NASH patients [2]; 52 weeks): No safety flags | LV change (NASH patients [2]; week 16): −21% | LV change (NASH patients [2]; week 52): −23% | reduction of MRI-PDFF (NASH patients [2]; week 52): −53% | fibroscan CAP change ([3]; 80-100 mg daily, week 52): −42 units | fibroscan kPa change ([3]; 80-100 mg daily, week 52): −7.6 kPa | LV mean %CFB [3, 5]: −16.3% | PDFF mean %CFB [3, 5]: −2.5% | ApoB reduction ([3]; in vivo): 20% | Blood pressure reduction ([3]; in vivo): 4-5 mm | GGT change ([3]; in vivo): −27% | LDL-C reduction ([3]; in vivo): 20% | Lp(a) reduction ([3]; in vivo): 30% | alkaline phosphatase (ALP) change ([3]; in vivo): −18% | safety and tolerability ([3]; in vivo): safe and well-tolerated | triglycerides reduction ([3]; in vivo): 21% | PDFF lowered by ([3]; patients with baseline PDFF>5%): 37% | Liver volume change ([3]; week 16): −15.9% | MRE lowered by ([3]; week 52): 0.68 kPa | patients with >15% reduction in LV ([3]; week 52): 73% | patients with MRE reduction of ≥15% ([3]; week 52): 34% | Estimated Probability of response (NASH resolution or fibrosis response) (NASH patients [4]; Cave,ss Q1: [20-155)): 33.6% | Observed Probability of response (NASH resolution or fibrosis response) (NASH patients [4]; Cave,ss Q1: [20-155)): 45.5% | Estimated Probability of response (NASH resolution or fibrosis response) (NASH patients [4]; Cave,ss Q2: [155-219)): 37.3% | Observed Probability of response (NASH resolution or fibrosis response) (NASH patients [4]; Cave,ss Q2: [155-219)): 44.0% | Estimated Probability of response (NASH resolution or fibrosis response) (NASH patients [4]; Cave,ss Q3: [219-321)): 41.9% | Observed Probability of response (NASH resolution or fibrosis response) (NASH patients [4]; Cave,ss Q3: [219-321)): 41.8% | Estimated Probability of response (NASH resolution or fibrosis response) (NASH patients [4]; Cave,ss Q4: [321-1326]): 56.2% | Observed Probability of response (NASH resolution or fibrosis response) (NASH patients [4]; Cave,ss Q4: [321-1326]): 55.0% | Mean Cave,ss (NASH patients [4]; Q1: [20-155)): 120 ng/mL | Mean Cave,ss (NASH patients [4]; Q2: [155-219)): 186 ng/mL | Mean Cave,ss (NASH patients [4]; Q3: [219-321)): 263 ng/mL | Mean Cave,ss (NASH patients [4]; Q4: [321-1326]): 495 ng/mL

— US12377104B1, “Methods for treating a fatty liver disease” (Madrigal Pharmaceuticals, Inc., priority 2024, dated 2025)
